Experimental data: ChEMBL document CHEMBL4346657, “Anticancer activity, dual prooxidant/antioxidant effect and apoptosis induction profile of new bichalcophene-5-carboxamidines” (Eur J Med Chem, 2019)
pIC50: −log10 of the molar value.

Tests used:
[1] = test system: OVCAR-8; experiment: Antiproliferative activity against human OVCAR8 cells assessed as growth inhibition after 48 hrs by sulforhodamine B assay; type: functional; conditions: OVCAR-8, 48 h
[2] = test system: U-251; experiment: Antiproliferative activity against human U251 cells assessed as growth inhibition after 48 hrs by sulforhodamine B assay; type: functional; conditions: U-251, 48 h
[3] = test system: NCI-H23; experiment: Antiproliferative activity against human NCI-H23 cells assessed as growth inhibition after 48 hrs by sulforhodamine B assay; type: functional; conditions: NCI-H23, 48 h
[4] = test system: KM12; experiment: Antiproliferative activity against human KM12 cells assessed as growth inhibition after 48 hrs by sulforhodamine B assay; type: functional; conditions: KM12, 48 h
[5] = test system: MDA-MB-468; experiment: Antiproliferative activity against human MDA-MB-468 cells assessed as growth inhibition after 48 hrs by sulforhodamine B assay; type: functional; conditions: MDA-MB-468, 48 h
[6] = test system: OVCAR-3; experiment: Antiproliferative activity against human OVCAR3 cells assessed as growth inhibition after 48 hrs by sulforhodamine B assay; type: functional; conditions: OVCAR-3, 48 h
[7] = test system: HCT-15; experiment: Antiproliferative activity against human HCT15 cells assessed as growth inhibition after 48 hrs by sulforhodamine B assay; type: functional; conditions: HCT-15, 48 h
[8] = test system: HCC 2998; experiment: Antiproliferative activity against human HCC2998 cells assessed as growth inhibition after 48 hrs by sulforhodamine B assay; type: functional; conditions: HCC 2998, 48 h
[9] = test system: HCT-116; experiment: Induction of apoptosis in human HCT116 cells assessed as increase in caspase 3 mRNA expression at 100 nM after 6 hrs hrs by SYBR green dye-based qRT-PCR analysis relative to control; type: functional
[10] = test system: UACC-257; experiment: Antiproliferative activity against human UACC257 cells assessed as growth inhibition after 48 hrs by sulforhodamine B assay; type: functional; conditions: UACC-257, 48 h
[11] = test system: SF-539; experiment: Antiproliferative activity against human SF539 cells assessed as growth inhibition after 48 hrs by sulforhodamine B assay; type: functional; conditions: SF-539, 48 h
[12] = test system: A498; experiment: Antiproliferative activity against human A498 cells assessed as growth inhibition after 48 hrs by sulforhodamine B assay; type: functional; conditions: A498, 48 h
[13] = test system: UO-31; experiment: Antiproliferative activity against human UO31 cells assessed as growth inhibition after 48 hrs by sulforhodamine B assay; type: functional; conditions: UO-31, 48 h
[14] = test system: Erythrocyte; experiment: Haemolytic activity in human erythrocytes assessed as induction of hemolysis at 1.25 mM after 30 mins relative to H202; type: cell-based; conditions: erythrocyte, 0.5 h, 1250 µM
[15] = test system: BT-549; experiment: Antiproliferative activity against human BT549 cells assessed as growth inhibition after 48 hrs by sulforhodamine B assay; type: functional; conditions: BT-549, 48 h
[16] = test system: K562; experiment: Antiproliferative activity against human K562 cells assessed as growth inhibition after 48 hrs by sulforhodamine B assay; type: functional, cell-based; conditions: K562, 48 h; for pIC50: read-out: IC50
[17] = test system: WI-38; experiment: Cytotoxicity activity against human WI38 cells assessed as reduction in cell viability measured after 48 hrs by MTT assay; type: cell-based; conditions: WI-38, 48 h
[18] = Antioxidant activity assessed as DPPH radical scavenging activity incubated in dark for 30 mins by spectrophotometric method relative to control; type: functional; parameters: concentration or dose not given beside the values
[19] = test system: CAKI-1; experiment: Antiproliferative activity against human CAKI-1 cells assessed as growth inhibition after 48 hrs by sulforhodamine B assay; type: functional; conditions: CAKI-1, 48 h
[20] = test system: TK-10; experiment: Antiproliferative activity against human TK10 cells assessed as growth inhibition after 48 hrs by sulforhodamine B assay; type: functional; conditions: TK-10, 48 h
[21] = test system: T47D; experiment: Antiproliferative activity against human T47D cells assessed as growth inhibition after 48 hrs by sulforhodamine B assay; type: functional
[22] = test system: PC-3; experiment: Antiproliferative activity against human PC3 cells assessed as growth inhibition after 48 hrs by sulforhodamine B assay; type: functional; conditions: PC-3, 48 h
[23] = test system: SR; experiment: Antiproliferative activity against human SR cells assessed as growth inhibition after 48 hrs by sulforhodamine B assay; type: functional
[24] = test system: A549; experiment: Antiproliferative activity against human A549/ATCC cells assessed as growth inhibition after 48 hrs by sulforhodamine B assay; type: functional; conditions: A549, 48 h
[25] = test system: MOLT-4; experiment: Antiproliferative activity against human MOLT4 cells assessed as growth inhibition after 48 hrs by sulforhodamine B assay; type: functional; conditions: MOLT-4, 48 h
[26] = test system: SNB-75; experiment: Antiproliferative activity against human SNB75 cells assessed as growth inhibition after 48 hrs by sulforhodamine B assay; type: functional; conditions: SNB-75, 48 h
[27] = test system: LOX IMVI; experiment: Antiproliferative activity against human LOXIMVI cells assessed as growth inhibition after 48 hrs by sulforhodamine B assay; type: functional
[28] = test system: OVCAR-4; experiment: Antiproliferative activity against human OVCAR4 cells assessed as growth inhibition after 48 hrs by sulforhodamine B assay; type: functional; conditions: OVCAR-4, 48 h
[29] = test system: HT-29; experiment: Antiproliferative activity against human HT-29 cells assessed as growth inhibition after 48 hrs by sulforhodamine B assay; type: functional; conditions: HT-29, 48 h
[30] = test system: Erythrocyte; experiment: Haemolytic activity in human erythrocytes assessed as induction of hemolysis at 0.625 mM after 30 mins relative to H202; type: cell-based; conditions: erythrocyte, 0.5 h, 625 µM
[31] = test system: Hs-578T; experiment: Antiproliferative activity against human Hs578T cells assessed as growth inhibition after 48 hrs by sulforhodamine B assay; type: functional
[32] = test system: NCI/ADR-RES; experiment: Antiproliferative activity against human NCI-ADR-RES cells assessed as growth inhibition after 48 hrs by sulforhodamine B assay; type: functional
[33] = test system: RXF 393; experiment: Antiproliferative activity against human RXF393 cells assessed as growth inhibition after 48 hrs by sulforhodamine B assay; type: functional; conditions: RXF 393, 48 h
[34] = test system: HOP-62; experiment: Antiproliferative activity against human HOP62 cells assessed as growth inhibition after 48 hrs by sulforhodamine B assay; type: functional; conditions: HOP-62, 48 h
[35] = Antioxidant activity assessed as DPPH radical scavenging activity incubated in dark for 30 mins by spectrophotometric method relative to ascorbic acid; type: functional
[36] = test system: Erythrocyte; experiment: (§1) Haemolytic activity in human erythrocytes assessed as induction of hemolysis at 2.5 mM after 30 mins relative to H202; type: cell-based; conditions: erythrocyte, 0.5 h, 2500 µM
[37] = test system: HCT-116; experiment: Reduction in CDK1 mRNA expression in human HCT116 cells at 100 nM after 6 hrs hrs by SYBR green dye-based qRT-PCR analysis relative to control; type: functional; conditions: HCT-116, 6 h
[38] = as §1; type: cell-based, Erythrocyte; conditions: erythrocytes, read-out: Activity

SMILES | GI50 [1] [µM] | GI50 [2] [µM] | GI50 [3] [µM] | GI50 [4] [µM] | GI50 [5] [µM] | GI50 [6] [µM] | GI50 [7] [µM] | GI50 [8] [µM] | fold change (FC) [9] | GI50 [10] [µM] | GI50 [11] [µM] | GI50 [12] [µM] | GI50 [13] [µM] | Activity [14] | GI50 [15] [µM] | pIC50 [16] | pIC50 [17] | inhibition [18] [%] | GI50 [19] [µM] | GI50 [20] [µM] | further results
N=C(N)c1ccc(-c2ccc(-c3ccc4ccccc4c3)s2)s1 | 2.27 | 1.81 | 2.95 | 1.92 | 2.38 | 1.89 | 1.69 | 2.02 | 2.59 | 16.1 | 1.97 | 1.7 | 1.96 | Non-Toxic | 17.6 | 5.82 | 4.09 | 54.6 | 3.11 | 2.23 | GI50 [21]: 1.95 µM; GI50 [22]: 2.19 µM; GI50 [23]: 1.05 µM; GI50 [24]: 2.03 µM; GI50 [25]: 1.47 µM; GI50 [26]: 1.93 µM; GI50 [27]: 1.71 µM; GI50 [28]: 1.91 µM; GI50 [29]: 1.71 µM; Activity [30]: Non-Toxic; GI50 [31]: 2.07 µM; GI50 [32]: 2.02 µM; GI50 [33]: 1.93 µM; GI50 [34]: 2.08 µM; fold change (FC) [35]: 0.6; Activity [36]: Non-Toxic
COc1ccc2cc(-c3ccc(-c4ccc(C(=N)N)s4)s3)ccc2c1 | 2.34 | 1.83 | 3.22 | 2.06 | 2.34 | 2.42 | 1.89 | 3.35 | 2.44 | 19.6 | 3.91 | 14.3 | 2.88 | Non-Toxic | 17.6 | 5.93 | 4.09 | 43 | 8.29 | 14.2 | GI50 [21]: 1.79 µM; GI50 [22]: 2.13 µM; GI50 [23]: 0.85 µM; GI50 [24]: 2.22 µM; GI50 [25]: 2.17 µM; GI50 [26]: 10.4 µM; GI50 [27]: 1.95 µM; GI50 [28]: 1.82 µM; GI50 [29]: 1.72 µM; Activity [30]: Non-Toxic; GI50 [31]: 16.6 µM; GI50 [32]: 2.29 µM; GI50 [33]: 7.22 µM; GI50 [34]: 1.78 µM; fold change (FC) [35]: 0.5; Activity [36]: Non-Toxic
COc1cc(OC)cc(-c2ccc(-c3ccc(C(=N)N)o3)o2)c1 | 3.75 | 2.45 | 9.25 | 2.45 | 2.41 | 3.26 | 3.18 | 2.05 | 4.1 | 2.41 | 1.83 | 2.89 | 2.67 | Non-Toxic | 6.91 | 5.72 | 4.09 | 31 | 4.33 | 13.4 | GI50 [16]: 1.98 µM; GI50 [21]: 2.08 µM; GI50 [22]: 4.77 µM; GI50 [23]: 1.88 µM; GI50 [24]: 3.78 µM; GI50 [25]: 2.44 µM; GI50 [26]: 2.2 µM; GI50 [27]: 1.79 µM; GI50 [28]: 3.51 µM; GI50 [29]: 2.77 µM; Activity [30]: Non-Toxic; GI50 [31]: 8.12 µM; GI50 [32]: 8.26 µM; GI50 [33]: 1.93 µM; GI50 [34]: 5.65 µM; fold change (FC) [35]: 0.3; Activity [36]: Non-Toxic
N=C(N)c1ccc(-c2ccc(-c3cc(Cl)cc(Cl)c3)o2)o1 | 2.23 | 1.82 | 1.67 | 1.65 | 2.23 | 1.7 | 1.64 | 1.84 | 2.81 | 2.05 | 1.72 | 1.61 | 1.71 | Non-Toxic | 1.97 | 5.89 | 4.80 | 15.7 | 1.7 | 1.86 | inhibition at 0.1 µM [37]: 46%; GI50 [21]: 1.72 µM; GI50 [22]: 1.8 µM; GI50 [23]: 0.63 µM; GI50 [24]: 1.95 µM; GI50 [25]: 1.69 µM; GI50 [26]: 1.41 µM; GI50 [27]: 1.68 µM; GI50 [28]: 1.85 µM; GI50 [29]: 1.5 µM; Activity [30]: Non-Toxic; GI50 [31]: 2.22 µM; GI50 [32]: 1.84 µM; GI50 [33]: 1.79 µM; GI50 [34]: 1.89 µM; fold change (FC) [35]: 0.2; hemolysis at 0.5 h, 2500 µM [38]: 11.1%
